# Source: ChEMBL document CHEMBL4477264, “Amino acid amides of piperic acid (PA) and 4-ethylpiperic acid (EPA) as NorA efflux pump inhibitors of Staphylococcus aureus” (2016)
# Active and inactive are the calls of the source. No cut-off for these calls is given here.
# How the values were obtained:
# [1] = target: T1, Quinolone resistance protein NorA (Staphylococcus aureus) (UniProt P0A0J7); assay: Inhibition of NorA efflux pump in Staphylococcus aureus 1199 assessed as concentration required for four-fold reduction in ethidium bromide MIC measured at every 3 mins interval for 30 mins by fluorescence analysis
# T1 sequence (whole entry): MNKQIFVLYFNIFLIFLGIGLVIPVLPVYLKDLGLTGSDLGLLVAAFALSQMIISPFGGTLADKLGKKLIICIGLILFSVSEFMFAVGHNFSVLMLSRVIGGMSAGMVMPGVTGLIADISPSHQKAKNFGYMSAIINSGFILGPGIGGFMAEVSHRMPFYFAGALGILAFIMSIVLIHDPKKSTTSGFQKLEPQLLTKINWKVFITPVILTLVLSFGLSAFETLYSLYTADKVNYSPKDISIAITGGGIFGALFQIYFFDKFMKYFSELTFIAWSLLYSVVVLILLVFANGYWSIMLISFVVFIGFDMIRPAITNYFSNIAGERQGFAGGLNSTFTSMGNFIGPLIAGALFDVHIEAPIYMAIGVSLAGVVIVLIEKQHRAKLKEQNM
# Staphylococcus aureus [2] = assay: Antibacterial activity against Staphylococcus aureus 1199B overexpressing NorA efflux pump measured at every 3 mins interval for 30 mins by fluorescence analysis; format: functional
# [3] = target: T1, Quinolone resistance protein NorA (Staphylococcus aureus); assay: Inhibition of NorA efflux pump in Staphylococcus aureus 1199 assessed as fold reduction in ethidium bromide MIC at […] measured at every 3 mins interval for 30 mins by fluorescence analysis; settings: 12.5 ug/ml
# [4] = target: T1, Quinolone resistance protein NorA (Staphylococcus aureus); assay: Inhibition of NorA efflux pump overexpressed in Staphylococcus aureus 1199B assessed as concentration required for four-fold reduction in ciprofloxacin MIC measured after 24 hrs by broth checkerboard method relative to control
# [5] = target: T1, Quinolone resistance protein NorA (Staphylococcus aureus); assay: Inhibition of NorA efflux pump overexpressed in Staphylococcus aureus 1199B assessed as fold reduction in ethidium bromide MIC at 12.5 ug/ml measured at every 3 mins interval for 30 mins by fluorescence analysis
# Staphylococcus aureus [6] = assay: Antibacterial activity against Staphylococcus aureus 1199B overexpressing NorA efflux pump measured after 24 hrs by broth checkerboard method; format: functional
# [7] = target: T1, Quinolone resistance protein NorA (Staphylococcus aureus); assay: Inhibition of NorA efflux pump overexpressed in Staphylococcus aureus 1199B assessed as concentration required for four-fold reduction in ethidium bromide MIC measured at every 3 mins interval for 30 mins by fluorescence analysis
# Staphylococcus aureus [8] = assay: Antibacterial activity against wild-type Staphylococcus aureus 1199 expressing NorA efflux pump measured at every 3 mins interval for 30 mins by fluorescence analysis; format: functional
# [9] = target: T1, Quinolone resistance protein NorA (Staphylococcus aureus); assay: Inhibition of NorA efflux pump overexpressed in Staphylococcus aureus 1199B assessed as fold reduction in ciprofloxacin MIC at 12.5 ug/ml measured after 24 hrs by broth checkerboard method
# [10] = target: T1, Quinolone resistance protein NorA (Staphylococcus aureus); assay: Inhibition of NorA efflux pump overexpressed in Staphylococcus aureus 1199B assessed as reduction in EtBr efflux measured over 30 mins by fluorescence analysis
# [11] = target: T1, Quinolone resistance protein NorA (Staphylococcus aureus); assay: Inhibition of NorA efflux pump overexpressed in Staphylococcus aureus 1199B assessed as increase in EtBr accumulation at 50 ug/ml measured after 30 mins by fluorescence analysis
# [12] = target: T1, Quinolone resistance protein NorA (Staphylococcus aureus); assay: Potency index, ratio of SK-20 MEC to compound MEC for Staphylococcus aureus 1199B overexpressing NorA efflux pump assessed as concentration required for four-fold reduction in ciprofloxacin MIC
SMILES,MEC [1] [µg/mL],MIC (Staphylococcus aureus [2]) [µg/mL],fold change (FC) [3],MEC [4] [µg/mL],fold change (FC) [5],MIC (Staphylococcus aureus [6]) [µg/mL],MEC [7] [µg/mL],MIC (Staphylococcus aureus [8]) [µg/mL],fold change (FC) [9],inhibition [10],inhibition [11],Ratio [12]
COC(=O)[C@@H](NC(=O)/C=C/C=C/c1ccc2c(c1)OCO2)C(C)(C)C,50,> 50,0,12.5,2,> 50,50,> 50,4,,,
CCC(/C=C/C(=O)N[C@@H](Cc1c[nH]c2ccccc12)C(=O)OC)=C\c1ccc2c(c1)OCO2,,,,,,,,> 50,,,,
CCC(/C=C/C(=O)N[C@@H](CC(C)C)C(=O)OC)=C\c1ccc2c(c1)OCO2,,,,> 50,,> 50,,,0,,,
CCC(/C=C/C(=O)N1CCCCC1)=C\c1ccc2c(c1)OCO2,25,> 50,0,12.5,4,> 50,12.5,> 50,4,,,
CCC(/C=C/C(=O)N[C@@H](C)C(=O)OC)=C\c1ccc2c(c1)OCO2,,,,> 50,,> 50,,,0,,,
COC(=O)CC1(NC(=O)/C=C/C=C/c2ccc3c(c2)OCO3)CCCCC1,,,,> 50,,> 50,,,0,,,
CCC(/C=C/C(=O)N[C@@H](Cc1ccccc1)C(=O)OC)=C\c1ccc2c(c1)OCO2,> 50,> 50,2,25,4,> 50,6.25,> 50,2,,,
CCC(/C=C/C(=O)N1CCC[C@@H]1C(=O)OC)=C\c1ccc2c(c1)OCO2,25,> 50,2,3.12,4,> 50,3.12,> 50,16,Dose-dependent effect,Active,4
CCC(/C=C/C(=O)O)=C\c1ccc2c(c1)OCO2,,,,> 50,,> 50,,,0,,,
CCC(/C=C/C(=O)N[C@H](C(=O)OC)C(C)C)=C\c1ccc2c(c1)OCO2,,,,> 50,,> 50,,,0,,,
COC(=O)CC1(NC(=O)/C=C/C=C/c2ccc3c(c2)OCO3)CCC(C(C)(C)C)CC1 (stereo unspecified),,,,> 50,,> 50,,,0,,,
COC(=O)CC1(CNC(=O)/C=C/C=C/c2ccc3c(c2)OCO3)CCCCC1,25,> 50,0,12.5,2,> 50,50,> 50,4,,,
CCC(/C=C/C(=O)NC1(CC(=O)OC)CCCCC1)=C\c1ccc2c(c1)OCO2,,,,50,,> 50,,,2,,,
CCC(/C=C/C(=O)N[C@H](C(=O)OC)C(C)(C)C)=C\c1ccc2c(c1)OCO2,> 50,> 50,2,12.5,2,> 50,25,> 50,4,,,
CCC(/C=C/C(=O)NC1(CC(=O)OC)CCC(CC)CC1)=C\c1ccc2c(c1)OCO2 (stereo unspecified),,,,> 50,,> 50,,,0,,,
CCCCC(=O)NC1(CC(=O)NNc2ccccc2)CCN(C(=O)/C=C/C(=C/c2ccc3c(c2)OCO3)CC)CC1,12.5,> 50,4,6.25,8,> 50,3.12,> 50,4,Dose-dependent effect,Active,
CCC(/C=C/C(=O)NCC1(CC(=O)OC)CCCCC1)=C\c1ccc2c(c1)OCO2,,,,25,,> 50,,,2,,,
CCC1CCC(CC(=O)OC)(NC(=O)/C=C/C=C/c2ccc3c(c2)OCO3)CC1 (stereo unspecified),,,,50,,> 50,,,0,,,
CCC(/C=C/C(=O)N1CCC(CC(=O)NC(C)(C)C(=O)OC)(NC(C)=O)CC1)=C\c1ccc2c(c1)OCO2,,,,25,,> 50,,,2,,,
O=C(/C=C/C=C/c1ccc2c(c1)OCO2)N1CCCCC1 [PIPERINE],> 50,> 50,0,> 50,2,> 50,,> 50,0,,,
O=C(O)/C=C/C=C/c1ccc2c(c1)OCO2 [PIPERIC ACID],,,,> 50,,> 50,,,0,,,
CCC(/C=C/C(=O)NC1(CC(=O)OC)CCC(C(C)(C)C)CC1)=C\c1ccc2c(c1)OCO2 (stereo unspecified),,,,> 50,,> 50,,,0,,,
